Measured values reported in publication PMC13313556, “Development and characterization of triazole-based WDR5 inhibitors for the treatment of glioblastoma” (JCI Insight, 2026).

How the values were obtained:
[1] = system: intracranial L0 PDX tumors; experiment: Long-term intracranial L0 xenograft; assay type: in vivo; conditions: 30 mg/kg once a day i.p.
Method: Briefly, L0 cells were intracranial injected into 6–12 week old NSG mice. Once fully anesthetized, mice were secured into a stereotaxic apparatus and 20,000 L0 Cells were injected into the left hemisphere 0.5 mm rostral and 1.8 mm lateral to the b4regma with 3.5 mm depth from the scalp. […] Animals were monitored over time for the presentation of neurological and behavioral symptoms at which time the animals were humanely euthanized. Survival analysis was completed using PRISM 9.1.2 and comparison were made using Log-Rank (Mantel-Cox) test.

DI318 flank PDX tumors = experiment: ELDA of cells dissociated from DI318 flank tumors; assay type: in vivo, NSG mice; conditions: 30 mg/kg once a day i.p. over 7 days
Method: (§1) L0 and DI318 CSCs were split with Accutase as single cells into NBMc. In total, 200 μL of CSCs were seeded into each well of a 96-well TC treated plate (n = 10 well per density) at 50, 25, 13, 6, 3, and 1.5 cells/well. […] The stem cell frequency was quantified and treatments were compared with DMSO as described by Hu and Smyth ([98]).
(1 picture or pasted object on this page, not shown here)

WDR5-target genes = experiment: RT-qPCR of WDR5-target genes in frozen DI318 flank tumor samples; assay type: in vivo, NSG mice; conditions: 30 mg/kg once a day i.p. over 7 days
DI318 CSCs = experiment: Extreme limiting dilution assay (ELDA) in DI318; assay type: cell-based, human; conditions: 14 days
Method: as §1

Row | SMILES | effect on survival [1] | tolerability ([1]; up to 71 days) | survival in L0 Intracranial Xenograft (Kaplan-Meier) ([1]; vehicle 72 days) [days] | effect on stem cell frequency of treated tumors (DI318 flank PDX tumors) | downregulation of WDR5-target genes in treated tumors (WDR5-target genes) | DI318 ELDA stem cell frequency (1 in N) (DI318 CSCs; 20 nM) | DI318 ELDA stem cell frequency (1 in N) (DI318 CSCs; 200 nM) | DI318 ELDA stem cell frequency (1 in N) (DI318 CSCs; 2000 nM)
1 | COc1cc(Cn2nnc3c2CCc2c-3cc(Cn3ccnc3C)cc2C2CC2)ccc1F [C3TD343] | no effect on survival | well tolerated | 71 |  |  |  |  | 
2 | COc1cc(Cn2nnc3c2CCc2c(-c4cn(C)nc4C(F)(F)F)cc(Cn4ccnc4C)cc2-3)cc(OC)c1 [C3TD078] |  |  |  | did not reduce tumor growth or affect stem cell frequency | did not downregulate WDR5-target genes in treated tumors | 1.6 | 2.1 | 2.2
